Where a SMILES comes first, the peptide text is derived from it.
How the values were obtained:
Candida albicans UP10 = format: cell-based; conditions: for Anti-Candida activity (%) at 100 µg/mL: CDR peptides, 100 µg/mL in distilled water, 37°C, 6 h, CFU after 48–72 h, triplicate, C. albicans UP10
Procedure: The alanine substituted derivatives (asd), defined according to the position held by the alanine-substituted aminoacid, were tested in the same biological assays to critically establish the functional relevance of each residue [5]. In vitro microbicidal activity of CDR peptides and selected asd against C. albicans UP 10 (clinical isolate from the fungi collection of the University of Parma) and C. albicans NCPF 3153 (National Collection of Pathogenic Fungi, Bristol, UK) were used for the in vitro experiments.
The microbicidal activity of synthetic CDRs against C. albicans strains was preliminarily evaluated by testing 100 µg/mL of each synthetic peptide by colony forming unit (CFU) assays as previously described [5]. Briefly, 10 µL of a distilled water suspension containing ∼5×10^4/mL germinating yeast cells were added to 90 µL of distilled water containing the synthetic peptide to be tested. Yeast suspensions were incubated at 37°C for 6 h. After incubation, the cell suspensions were plated on Sabouraud dextrose agar, incubated at 30°C and observed for CFU determination after 48–72 hours. Each assay was carried out in triplicate. […] EC50 was calculated by nonlinear regression analysis using Graph Pad Prism 4.01 software, San Diego, CA, USA.

R5 HIV-1 = format: cell-based; conditions: 10 µg/ml; for % inhibitory activity (10 µg/ml), endogenous HIV-1 replication: ex vivo, day 10 of culture, p24, mean of 3 determinations
Procedure: (§3) Briefly, for endogenous HIV-1 replication assays peripheral blood mononuclear cells (PBMCs) from R5 HIV-1-infected patients characterized by high viral RNA titers in plasma and cell-associated viremia were cultured in 96-well plates at 1×10^6 cells/mL in RPMI 1640 medium with 10% fetal calf serum (FCS) and 20 U/mL of rIL-2. Exogenous rIL-2 was added every 3–4 days. Cultures were treated with synthetic mAb CDRs and mAb C7/pc42 H1 asd at 10 µg/mL during the time of culture. Virus production on days 5 and 10 was assayed in the supernatants using ultrasensitive Alliance® HIV-1 p24 ELISA kit (Perkin Elmer); p24 Ag in the supernatants of untreated cultures corresponded to 100% of viral production. For exogenous infection assays, PHA-stimulated PBMCs obtained from healthy individuals were infected with BaL (R5) or IIIB (X4) HIV-1 strain at a median tissue culture infective dose (TCID50) of 500 TCID50/ml. After 2 h of adsorption, the cells were washed, suspended at 2×10^5 cells/ml in medium and cultured in 96-well cultures plates. At time zero of infection, synthetic peptides were added to the cultures at 10 µg/ml and were maintained throughout the experiment. All assays were performed in triplicate. Virus production was assayed 10 days after infection in the supernatants of HIV-1-infected PBMCs by p24 assay.

HIV-1 BaL (R5) = test: In vitro exogenous HIV-1 infection of PHA-stimulated PBMCs, BaL strain (p24 assay); format: cell-based; conditions: day 10, p24, mean of 3 determinations
Procedure: as §3

C. albicans NCPF 3153 = test: Murine invasive candidiasis, i.p. peptide treatment; format: in vivo, BALB/c mice; conditions: day 5 post-infection; 200 µg peptide i.p. x3; saline 160.3±46.6
Procedure: Animal experiments were approved by the Institutional Review Board of the School of Medicine and Odontology at the University of the Basque Country, Spain. Female BALB/c mice, 8-weeks old (11–12 animals/group), were infected intravenously with 5×10^5 C. albicans NCPF 3153 yeast cells suspended in 0.1 mL saline. Mice were treated i.p. with 200 µg of mAb C7 L1 and mAb C7/pc42 H1 and H2 for 3 days starting on day 0, and 4 h after the fungal challenge, and at 24 and 48 h thereafter. Control mice were injected with saline (same treatment schedule as those treated with the CDRs). Protection was evaluated by monitoring animal survival for 20 days. The mean survival time and numbers of CFU of C. albicans in infected tissues were calculated as reported previously.
The Kaplan-Meier log rank test was applied to survival data. Data on CFU in infected tissues were analyzed by Student's t test. p values of 0.05 were considered significant.

HIV-1 IIIB (X4) = test: In vitro exogenous HIV-1 infection of PHA-stimulated PBMCs, IIIB strain (p24 assay); format: cell-based; conditions: day 10, p24, mean of 3 determinations
Procedure: as §3

HUVEC = test: In vitro Matrigel angiogenesis assay; format: cell-based, human; conditions: peptides at 1 mM, C7/pc42 H2 at 50 µM; 18 h, 37°C; triplicate wells
Procedure: Matrigel™ Matrix (B&D Biosciences, Bedford, MA, USA) was thawed on ice, added (10 µL/well) to coat 96-well plates, and allowed to polymerize for 1 h at 37°C. Human umbilical vein endothelial cells (HUVEC) (5×10^3cells/well) were added alone or mixed with mAb C7 CDR peptides in 100 µL of RPMI medium supplemented with 0.2% of FCS in each well. All peptides were used at 1 mM, with the exception of mAb C7/pc42 H2 that was used at 50 µM. The plates were incubated at 37°C for 18 h and images were captured at 8× magnification with a Sony Cyber-shot camera coupled to a light microscope. The number of pro-angiogenic structures (closed rings formed at a given time by endothelial cell sprouting) was counted from 3 different wells, and the average value determined in each system, [45]. The assay was repeated at least three times.

[1] = test system: B16F10-Nex2 murine melanoma cells; format: cell-based; conditions: 12 h
SKmel-28 = format: cell-based, human
Procedure: (§1) Murine B16F10-Nex2 melanoma cells (cloned at the Experimental Oncology Unit, Federal University of São Paulo, UNIFESP), and human SKmel28 and SKmel25 human melanoma cell lines originally obtained from the Memorial Sloan Kettering Cancer Center, New York, were cultured at 37°C, under humid atmosphere and 5% CO2, in RPMI-1640 medium with 10 mM N-2-hydroxyethylpiperazine-N2 ethanesulphonic acid (HEPES), 24 mM sodium bicarbonate, 40 mg/L gentamycin, pH 7.2 and 10% FCS.
(§2) Synthetic CDRs, scrambled peptides (controls), and […] of mAb C7/pc42 H2, selected for the highest cytotoxic activity, were diluted from 1 mM to 0.05 mM in RPMI with 10% FCS and incubated with B16F10-Nex2, SKmel28 and SKmel25 cells (5×10^3 cells/well) in 100 µL per well for 12 h at 37°C. Each peptide was tested in triplicate. After 12 h, the cytotoxic activities of the peptides were determined by measuring cell viability by Trypan Blue exclusion.

SKmel-25 = format: cell-based, human
Procedure: as §1, §2

Compound | Anti-Candida activity (%) at 100 µg/mL (Candida albicans UP10) [%] | inhibition of R5 HIV-1 replication in treated cultures (R5 HIV-1; ex vivo conditions) [%] | % inhibitory activity (10 µg/ml), endogenous HIV-1 replication (R5 HIV-1) [%] | % inhibitory activity (10 µg/ml), exogenous HIV-1 replication, BaL (HIV-1 BaL (R5)) [%] | CFU counts in kidney tissue (C. albicans NCPF 3153) | % inhibitory activity (10 µg/ml), exogenous HIV-1 replication, IIIB (HIV-1 IIIB (X4)) [%] | endothelial cell sprouting on Matrigel (HUVEC) | EC50 (Candida albicans UP10; UP10, 6 h) [µM] | EC50 [1] [µM] | cytotoxicity to human melanoma cell line SKmel-28 (SKmel-28) | cytotoxicity to human melanoma cell line SKmel-25 (SKmel-25)
GYYMH [C7/pc42 H1, synthetic peptide identical to heavy chain CDR H1 shared by mAb C7 and mAb pc42] | 69.2 | > 50 | 58 | 24 | 119.6±35.5 | 0 | – | – | – | – | –
WASTRES [C7 L2, synthetic peptide identical to light chain CDR L2 of mouse mAb C7] | 49.8 | – | 38 | 59 | – | 4 | inhibited endothelial cell sprouting | – | – | – | –
CC[C@H](C)[C@H](NC(=O)[C@@H](N)Cc1ccc(O)cc1)C(=O)N[C@@H](CO)C(=O)N[C@@H](CS)C(=O)N[C@@H](Cc1ccc(O)cc1)C(=O)N[C@@H](CC(N)=O)C(=O)NCC(=O)N[C@@H](C)C(=O)N[C@H](C(=O)N[C@@H](CO)C(=O)N[C@@H](Cc1ccc(O)cc1)C(=O)N[C@@H](CC(N)=O)C(=O)N[C@@H](CCC(N)=O)C(=O)N[C@@H](CCCCN)C(=O)N[C@@H](Cc1ccccc1)C(=O)N[C@@H](CCCCN)C(=O)O)[C@@H](C)O [C7/pc42 H2] (H-YISCYNGATSYNQKFK-OH) | – | – | – | – | – | – | – | 4.19 | 53.5 | equally cytotoxic | equally cytotoxic

Reference: paper PMC2396520, “Antibody Complementarity-Determining Regions (CDRs) Can Display Differential Antimicrobial, Antiviral and Antitumor Activities” (PLoS ONE, 2008)
